Laboratory results published in article PMC12155096 (International Journal of Molecular Sciences, 2025).
pIC50: −log10 of the molar value. Where two headings read alike, the source gives them in different places.

Legend:
Experiment in all cases: biochemical; call rule not given here
[1] = target: Photinus pyralis (firefly) luciferase (Photinus pyralis, UniProt P08659); type: biochemical
human CYP2C9 = human CYP2C9 (Homo sapiens, UniProt P11712)
CYP3A4 = CYP3A4 (Homo sapiens, UniProt P08684)
human CYP2C19 = human CYP2C19 (Homo sapiens, UniProt P33261)
Sequence of human CYP2C19 (P33261 whole entry): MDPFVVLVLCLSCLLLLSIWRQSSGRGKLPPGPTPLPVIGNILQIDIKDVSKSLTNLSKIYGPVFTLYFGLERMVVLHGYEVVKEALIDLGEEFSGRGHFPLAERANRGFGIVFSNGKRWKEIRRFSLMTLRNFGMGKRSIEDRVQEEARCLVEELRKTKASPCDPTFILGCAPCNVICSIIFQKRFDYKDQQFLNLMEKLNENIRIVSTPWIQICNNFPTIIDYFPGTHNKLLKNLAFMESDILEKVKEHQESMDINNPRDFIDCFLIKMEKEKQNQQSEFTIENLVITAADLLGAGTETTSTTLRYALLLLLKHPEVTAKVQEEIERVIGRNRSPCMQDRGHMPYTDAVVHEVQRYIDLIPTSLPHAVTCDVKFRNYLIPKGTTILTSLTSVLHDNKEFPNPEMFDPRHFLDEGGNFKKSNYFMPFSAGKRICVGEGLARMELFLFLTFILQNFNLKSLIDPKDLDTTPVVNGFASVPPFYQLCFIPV

human CYP1A2 = target: T1, human CYP1A2 (Homo sapiens, UniProt P05177)
T1 sequence (P05177 1-516): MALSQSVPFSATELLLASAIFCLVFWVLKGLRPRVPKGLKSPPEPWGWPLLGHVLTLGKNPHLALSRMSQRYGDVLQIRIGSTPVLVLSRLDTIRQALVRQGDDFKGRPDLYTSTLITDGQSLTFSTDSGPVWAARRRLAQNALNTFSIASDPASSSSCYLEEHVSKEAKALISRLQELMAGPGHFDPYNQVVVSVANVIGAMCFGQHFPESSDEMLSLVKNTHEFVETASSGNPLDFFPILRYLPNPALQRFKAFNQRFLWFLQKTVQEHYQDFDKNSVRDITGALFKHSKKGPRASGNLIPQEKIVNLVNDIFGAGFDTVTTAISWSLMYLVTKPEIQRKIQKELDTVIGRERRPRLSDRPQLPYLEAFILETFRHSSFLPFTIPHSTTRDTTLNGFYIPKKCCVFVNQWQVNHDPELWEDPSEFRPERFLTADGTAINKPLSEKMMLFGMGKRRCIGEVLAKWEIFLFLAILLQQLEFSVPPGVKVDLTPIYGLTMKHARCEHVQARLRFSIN

human CYP2D6 = human CYP2D6 (Homo sapiens, UniProt P10635)
Sequence of human CYP2D6 (P10635 whole entry): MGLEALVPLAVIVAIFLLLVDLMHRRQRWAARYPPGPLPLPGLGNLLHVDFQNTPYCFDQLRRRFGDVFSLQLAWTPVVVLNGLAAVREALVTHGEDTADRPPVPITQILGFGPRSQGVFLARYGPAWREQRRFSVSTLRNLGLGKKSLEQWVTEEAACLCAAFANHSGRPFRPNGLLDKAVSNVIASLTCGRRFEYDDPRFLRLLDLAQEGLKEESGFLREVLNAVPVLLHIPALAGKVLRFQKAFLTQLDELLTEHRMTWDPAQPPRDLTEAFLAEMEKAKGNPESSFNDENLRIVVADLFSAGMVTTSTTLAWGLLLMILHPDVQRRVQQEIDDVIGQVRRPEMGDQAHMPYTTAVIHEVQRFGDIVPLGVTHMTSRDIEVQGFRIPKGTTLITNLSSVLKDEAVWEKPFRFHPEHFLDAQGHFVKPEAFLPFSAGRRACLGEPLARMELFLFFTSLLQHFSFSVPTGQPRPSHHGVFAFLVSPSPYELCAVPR

[2] = CYP2C9 IC50 (half-maximal inhibitory concentration)
[3] = CYP3A4 IC50 (half-maximal inhibitory concentration)
[4] = CYP2C19 IC50 (half-maximal inhibitory concentration)
[5] = CYP1A2 IC50 (half-maximal inhibitory concentration)
[6] = CYP2D6 IC50 (half-maximal inhibitory concentration)

Sequence of human CYP2C9 (P11712 whole entry): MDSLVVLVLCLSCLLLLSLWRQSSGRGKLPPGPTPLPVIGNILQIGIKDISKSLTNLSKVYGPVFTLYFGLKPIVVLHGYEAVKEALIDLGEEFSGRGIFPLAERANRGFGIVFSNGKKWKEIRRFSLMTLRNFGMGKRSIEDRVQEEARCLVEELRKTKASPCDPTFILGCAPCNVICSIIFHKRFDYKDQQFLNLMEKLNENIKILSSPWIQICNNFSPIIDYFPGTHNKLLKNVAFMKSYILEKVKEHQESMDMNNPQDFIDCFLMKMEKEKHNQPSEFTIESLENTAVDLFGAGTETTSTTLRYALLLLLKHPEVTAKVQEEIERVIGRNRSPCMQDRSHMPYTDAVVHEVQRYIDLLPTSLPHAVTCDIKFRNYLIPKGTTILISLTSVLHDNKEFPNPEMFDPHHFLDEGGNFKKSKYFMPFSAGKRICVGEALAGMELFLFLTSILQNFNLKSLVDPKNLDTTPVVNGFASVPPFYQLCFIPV
Sequence of Photinus pyralis (firefly) luciferase (P08659 whole entry): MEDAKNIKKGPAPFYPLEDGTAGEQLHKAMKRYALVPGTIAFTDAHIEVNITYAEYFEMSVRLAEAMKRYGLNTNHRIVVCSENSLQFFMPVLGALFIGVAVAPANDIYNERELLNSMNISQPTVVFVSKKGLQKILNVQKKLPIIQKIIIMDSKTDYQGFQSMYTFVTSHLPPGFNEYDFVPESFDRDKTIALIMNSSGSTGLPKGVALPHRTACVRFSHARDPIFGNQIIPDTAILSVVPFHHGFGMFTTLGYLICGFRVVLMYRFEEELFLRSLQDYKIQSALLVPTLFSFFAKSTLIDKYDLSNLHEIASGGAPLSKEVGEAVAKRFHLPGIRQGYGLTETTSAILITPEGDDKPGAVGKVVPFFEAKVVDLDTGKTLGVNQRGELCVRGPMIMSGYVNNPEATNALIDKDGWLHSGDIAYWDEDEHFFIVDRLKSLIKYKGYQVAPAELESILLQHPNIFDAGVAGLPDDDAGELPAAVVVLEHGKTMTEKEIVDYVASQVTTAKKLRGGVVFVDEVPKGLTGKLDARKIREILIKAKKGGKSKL
Sequence of CYP3A4 (P08684 whole entry): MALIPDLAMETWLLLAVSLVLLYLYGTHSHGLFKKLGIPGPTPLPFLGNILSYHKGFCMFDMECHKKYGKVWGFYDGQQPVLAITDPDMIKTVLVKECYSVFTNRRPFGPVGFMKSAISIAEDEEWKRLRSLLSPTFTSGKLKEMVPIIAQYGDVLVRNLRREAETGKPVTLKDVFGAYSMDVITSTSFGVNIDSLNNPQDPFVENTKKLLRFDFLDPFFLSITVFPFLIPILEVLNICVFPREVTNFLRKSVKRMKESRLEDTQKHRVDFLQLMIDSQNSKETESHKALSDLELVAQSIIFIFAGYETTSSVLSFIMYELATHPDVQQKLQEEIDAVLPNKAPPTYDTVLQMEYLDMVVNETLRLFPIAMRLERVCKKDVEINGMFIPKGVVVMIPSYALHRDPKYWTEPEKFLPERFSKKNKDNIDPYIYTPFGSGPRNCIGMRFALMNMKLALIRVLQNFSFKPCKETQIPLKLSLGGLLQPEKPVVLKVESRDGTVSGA

**Q.** Which results are given for `c1ccc2sc(SN(C3CCCCC3)C3CCCCC3)nc2c1`?
**A.** Luciferase IC50 [1]: Inactive; pIC50 (human CYP2C9; CYP2C9 IC50): 5.05; pIC50 (CYP3A4; CYP3A4 IC50): 5.29; pIC50 (human CYP2C19; CYP2C19 IC50): 4.81; pIC50 (human CYP1A2; CYP1A2 IC50): 4.48; pIC50 (human CYP2D6; CYP2D6 IC50): 6.25

**Q.** Which results are given for `Fc1ccc([C@]2(Cn3cncn3)O[C@H]2c2ccccc2Cl)cc1` (racemic) [Epoxiconazole]?
**A.** Luciferase IC50 (half-maximal inhibitory concentration) [1]: Inactive; pIC50 (human CYP2C9; [2]): 5.25; pIC50 (CYP3A4; [3]): 6.04; pIC50 (human CYP2C19; [4]): 6.47; pIC50 (human CYP1A2; [5]): 5.41; pIC50 (human CYP2D6; [6]): 4.43

**Q.** What does the source list for `CC(C)(C)[C@@H](O)[C@@H](Cc1ccc(Cl)cc1)n1cncn1` (racemic) [Paclobutrazol]?
**A.** Luciferase IC50 (half-maximal inhibitory concentration) [1]: Inactive; pIC50 (human CYP2C9; [2]): 4.92; pIC50 (CYP3A4; [3]): 6.85; pIC50 (human CYP2C19; [4]): 6.48; pIC50 (human CYP1A2; [5]): 4.13; pIC50 (human CYP2D6; [6]): 4.43

**Q.** How did the pIC50 [1] turn out when `Cc1ccc2ccc3cccc4ccc1c2c34` [1-Methylpyrene] was run?
**A.** The pIC50 was 4.35.

**Q.** What about the pIC50 (human CYP2C9; CYP2C9 IC50) of the same compound?
**A.** Its pIC50 is 4.26.

**Q.** What about the pIC50 (CYP3A4; CYP3A4 IC50) of the same compound?
**A.** Its pIC50 is 4.52.

**Q.** What about the pIC50 (human CYP2C19; CYP2C19 IC50) of the same compound?
**A.** Its pIC50 is 4.50.

**Q.** What about the pIC50 (human CYP1A2; CYP1A2 IC50) of the same compound?
**A.** The pIC50 was 6.07.

**Q.** And the pIC50 (human CYP2D6; CYP2D6 IC50)?
**A.** Its pIC50 is 4.26.

**Q.** With `Cc1cc(C)c(N)cc1C` [2,4,5-Trimethylaniline] as the compound, how does the pIC50 [1] read?
**A.** The pIC50 was 4.80.

**Q.** And the pIC50 (human CYP2C9; CYP2C9 IC50)?
**A.** Its pIC50 is 4.48.

**Q.** What about the pIC50 (CYP3A4; CYP3A4 IC50) of the same compound?
**A.** The pIC50 was 4.45.

**Q.** And the pIC50 (human CYP2C19; CYP2C19 IC50)?
**A.** Its pIC50 is 5.01.

**Q.** What about the pIC50 (human CYP1A2; CYP1A2 IC50) of the same compound?
**A.** Its pIC50 is 6.06.

**Q.** What about the pIC50 (human CYP1A2; IC50 CYP1A2 assay) of the same compound?
**A.** Its pIC50 is 6.10.

**Q.** And the pIC50 (human CYP2D6; CYP2D6 IC50)?
**A.** Its pIC50 is 4.42.

**Q.** What does the source list for `O=S(=O)(Oc1ccc(Cl)cc1Cl)c1ccccc1` [2,4-Dichlorophenyl benzenesulfonate]?
**A.** pIC50 [1]: 4.26; AC50 (human CYP2C9; CYP2C9 AC50 (half-maximal activity concentration)): 35.7 µM; pIC50 (human CYP2C9; [2]): 4.41; AC50 (CYP3A4; CYP3A4 AC50 (half-maximal activity concentration)): 3.27 µM; pIC50 (CYP3A4; [3]): 5.67; AC50 (human CYP2C19; CYP2C19 AC50 (half-maximal activity concentration)): 0.77 µM; pIC50 (human CYP2C19; [4]): 6.31; pIC50 (human CYP2C19; IC50 CYP2C19 assay): 6.38; AC50 (human CYP1A2; CYP1A2 AC50 (half-maximal activity concentration)): 2.24 µM; pIC50 (human CYP1A2; [5]): 5.80; AC50 (human CYP2D6; CYP2D6 AC50 (half-maximal activity concentration)): 51.1 µM; pIC50 (human CYP2D6; [6]): 4.19

**Q.** Which results are given for `Nc1ccc2c(c1)C(=O)c1ccccc1C2=O` [2-Aminoanthraquinone]?
**A.** pIC50 [1]: 5.57; pIC50 (human CYP2C9; [2]): 4.65; pIC50 (CYP3A4; [3]): 5.79; pIC50 (human CYP2C19; [4]): 4.86; pIC50 (human CYP1A2; [5]): 6.70; pIC50 (human CYP2D6; [6]): 4.38

**Q.** With `Cc1cc(-c2ccc(N)c(C)c2)ccc1N` [3,3'-Dimethylbenzidine] as the compound, how does the pIC50 [1] read?
**A.** Its pIC50 is 4.12.

**Q.** And the pIC50 (human CYP2C9)?
**A.** Its pIC50 is 4.63.

**Q.** And the pIC50 (CYP3A4; CYP3A4 IC50)?
**A.** The pIC50 was 4.97.

**Q.** And the pIC50 (human CYP2C19; CYP2C19 IC50)?
**A.** Its pIC50 is 5.20.

**Q.** And the pIC50 (human CYP1A2; CYP1A2 IC50)?
**A.** Its pIC50 is 6.33.

**Q.** What about the pIC50 (human CYP1A2; IC50 CYP1A2 assay) of the same compound?
**A.** Its pIC50 is 6.19.

**Q.** And the pIC50 (human CYP2D6)?
**A.** Its pIC50 is 5.47.

**Q.** For `CN(C)c1ccc(Cc2ccc(N(C)C)cc2)cc1` [4,4'-Methylenebis(N,N-dimethylaniline)], which “Luciferase IC50 (half-maximal inhibitory concentration)” value [1] is on record?
**A.** Its value is “Inactive”.

**Q.** What about the pIC50 (human CYP2C9; [2]) of the same compound?
**A.** Its pIC50 is 4.59.

**Q.** And the pIC50 (CYP3A4; [3])?
**A.** The pIC50 was 4.70.

**Q.** And the pIC50 (human CYP2C19; [4])?
**A.** The pIC50 was 6.66.

**Q.** And the pIC50 (human CYP1A2; [5])?
**A.** Its pIC50 is 5.34.

**Q.** What about the pIC50 (human CYP2D6; [6]) of the same compound?
**A.** The pIC50 was 4.40.

**Q.** `Cc1cc(O)c(C(C)(C)C)cc1Sc1cc(C(C)(C)C)c(O)cc1C` [4,4'-Thiobis(6-tert-butyl-m-cresol)] was tested. Which “Luciferase IC50 (half-maximal inhibitory concentration)” value [1] did it give?
**A.** Its value is “Inactive”.

**Q.** What about the pIC50 (human CYP2C9; [2]) of the same compound?
**A.** Its pIC50 is 5.38.

**Q.** What about the pIC50 (CYP3A4; [3]) of the same compound?
**A.** The pIC50 was 5.14.

**Q.** What about the pIC50 (human CYP2C19; [4]) of the same compound?
**A.** Its pIC50 is 6.42.

**Q.** What about the pIC50 (human CYP1A2; [5]) of the same compound?
**A.** Its pIC50 is 4.40.

**Q.** What about the pIC50 (human CYP2D6; [6]) of the same compound?
**A.** Its pIC50 is 4.61.

**Q.** How did the pIC50 [1] turn out when `c1ccc(CCCc2ccncc2)cc1` [4-(3-Phenylpropyl)pyridine] was run?
**A.** The pIC50 was 4.26.

**Q.** What about the pIC50 (human CYP2C9) of the same compound?
**A.** Its pIC50 is 5.73.

**Q.** What about the pIC50 (CYP3A4) of the same compound?
**A.** Its pIC50 is 6.37.

**Q.** What about the pIC50 (human CYP2C19) of the same compound?
**A.** Its pIC50 is 6.15.

**Q.** And the pIC50 (human CYP1A2)?
**A.** Its pIC50 is 5.94.

**Q.** And the pIC50 (human CYP2D6)?
**A.** The pIC50 was 5.41.

**Q.** Which results are given for `OCc1c2ccccc2cc2ccccc12` [9-Anthracenemethanol]?
**A.** pIC50 [1]: 4.16; pIC50 (human CYP2C9; [2]): 4.56; pIC50 (CYP3A4; [3]): 4.53; pIC50 (human CYP2C19; [4]): 4.58; pIC50 (human CYP1A2; [5]): 6.15; pIC50 (human CYP2D6; [6]): 4.22

**Q.** How did the “Luciferase IC50” value [1] turn out when `ClC1=C(Cl)C2(Cl)C3C4C=CC(C4)C3C1(Cl)C2(Cl)Cl` (centres unmarked) [Aldrin] was run?
**A.** Its value is “Inactive”.

**Q.** What about the pIC50 (human CYP2C9; CYP2C9 IC50) of the same compound?
**A.** Its pIC50 is 4.47.

**Q.** And the pIC50 (CYP3A4; CYP3A4 IC50)?
**A.** Its pIC50 is 6.55.

**Q.** What about the pIC50 (human CYP2C19; CYP2C19 IC50) of the same compound?
**A.** The pIC50 was 4.56.

**Q.** What about the pIC50 (human CYP1A2; CYP1A2 IC50) of the same compound?
**A.** Its pIC50 is 4.45.

**Q.** And the pIC50 (human CYP2D6; CYP2D6 IC50)?
**A.** Its pIC50 is 4.35.

**Q.** What does the source list for `CC(C)(C)C(O)C(Oc1ccc(-c2ccccc2)cc1)n1cncn1` (centres unmarked) [Bitertanol]?
**A.** Luciferase IC50 (half-maximal inhibitory concentration) [1]: Inactive; pIC50 (human CYP2C9; [2]): 5.12; pIC50 (CYP3A4; [3]): 6.17; pIC50 (human CYP2C19; [4]): 4.32; pIC50 (human CYP1A2; [5]): 4.31; pIC50 (human CYP2D6; [6]): 4.20

**Q.** `Clc1ccc(C2(Cn3cncn3)CC(Br)CO2)c(Cl)c1` (centres unmarked) [Bromuconazole] was tested. Which “Luciferase IC50 (half-maximal inhibitory concentration)” value [1] did it give?
**A.** The value was “Inactive”.

**Q.** What about the pIC50 (human CYP2C9; [2]) of the same compound?
**A.** Its pIC50 is 5.47.

**Q.** What about the pIC50 (CYP3A4; [3]) of the same compound?
**A.** Its pIC50 is 7.10.

**Q.** And the pIC50 (human CYP2C19; [4])?
**A.** Its pIC50 is 6.92.

**Q.** What about the pIC50 (human CYP1A2; [5]) of the same compound?
**A.** The pIC50 was 4.66.

**Q.** And the pIC50 (human CYP2D6; [6])?
**A.** The pIC50 was 4.68.

**Q.** `CCCCOCN(C(=O)CCl)c1c(CC)cccc1CC` [Butachlor] was tested. Which “Luciferase IC50 (half-maximal inhibitory concentration)” value [1] did it give?
**A.** The value was “Inactive”.

**Q.** And the pIC50 (human CYP2C9; [2])?
**A.** The pIC50 was 5.29.

**Q.** And the pIC50 (CYP3A4; [3])?
**A.** The pIC50 was 5.16.

**Q.** What about the pIC50 (human CYP2C19; [4]) of the same compound?
**A.** The pIC50 was 6.08.

**Q.** And the pIC50 (human CYP1A2; [5])?
**A.** The pIC50 was 4.29.

**Q.** And the pIC50 (human CYP2D6; [6])?
**A.** The pIC50 was 4.29.
